Experimental data as given in ChEMBL document CHEMBL2021840 (Eur J Med Chem, 2012).

Experiments:
[1] = Selectivity ratio of IC50 for ERbeta to IC50 for ERalpha
MCF7 [2] = assay: Antiproliferative activity against human MCF7 cells; format: functional, cell-based
Estrogen receptor beta [3] = target: T1, Estrogen receptor beta (Homo sapiens, UniProt Q92731); assay: Relative binding affinity to human ERbeta
MCF7 [4] = assay: Antiproliferative activity against human MCF7 cells after 7 days; format: functional, cell-based; conditions: MCF7, 168 h
Estrogen receptor = target: T2, Estrogen receptor (Homo sapiens, UniProt P03372); assay: Displacement of [3H]-17beta-estradiol from ERalpha
T2 sequence (P03372 whole entry): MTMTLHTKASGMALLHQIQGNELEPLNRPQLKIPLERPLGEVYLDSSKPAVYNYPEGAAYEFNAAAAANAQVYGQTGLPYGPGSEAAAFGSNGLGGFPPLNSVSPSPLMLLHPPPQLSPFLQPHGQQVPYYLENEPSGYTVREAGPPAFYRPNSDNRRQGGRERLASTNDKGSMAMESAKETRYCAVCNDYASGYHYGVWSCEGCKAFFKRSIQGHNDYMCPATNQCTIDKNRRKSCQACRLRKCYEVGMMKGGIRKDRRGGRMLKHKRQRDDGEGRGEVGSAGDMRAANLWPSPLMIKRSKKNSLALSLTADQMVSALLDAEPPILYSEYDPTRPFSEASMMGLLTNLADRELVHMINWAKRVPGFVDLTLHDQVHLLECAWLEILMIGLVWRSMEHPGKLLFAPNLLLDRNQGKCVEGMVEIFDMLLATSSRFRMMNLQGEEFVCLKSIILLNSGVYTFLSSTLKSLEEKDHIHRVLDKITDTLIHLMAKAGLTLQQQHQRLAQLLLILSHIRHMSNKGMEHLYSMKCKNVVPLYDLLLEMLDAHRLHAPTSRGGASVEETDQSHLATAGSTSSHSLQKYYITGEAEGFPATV

Estrogen receptor beta [5] = target: T1, Estrogen receptor beta; assay: Displacement of [3H]-17beta-estradiol from ERbeta
[6] = Homo sapiens, MCF7, read-out: IC50

T1 sequence (Q92731 whole entry): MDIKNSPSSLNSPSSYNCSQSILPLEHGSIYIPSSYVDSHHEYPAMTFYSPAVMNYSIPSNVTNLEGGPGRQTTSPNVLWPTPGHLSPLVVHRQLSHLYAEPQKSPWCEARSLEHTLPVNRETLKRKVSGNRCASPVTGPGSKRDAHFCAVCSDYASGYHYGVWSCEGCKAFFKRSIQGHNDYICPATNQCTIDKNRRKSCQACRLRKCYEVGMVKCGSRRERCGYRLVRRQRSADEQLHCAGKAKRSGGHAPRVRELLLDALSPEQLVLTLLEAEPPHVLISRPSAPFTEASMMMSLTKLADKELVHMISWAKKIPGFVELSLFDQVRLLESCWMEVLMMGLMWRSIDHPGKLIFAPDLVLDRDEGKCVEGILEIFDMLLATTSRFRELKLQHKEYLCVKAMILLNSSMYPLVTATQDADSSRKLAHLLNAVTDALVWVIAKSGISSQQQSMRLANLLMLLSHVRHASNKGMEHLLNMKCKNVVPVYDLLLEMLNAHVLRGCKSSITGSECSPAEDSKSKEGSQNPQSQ

SMILES | IC50 (MCF7 [2]; [6]) [nM] | also measured
Cc1cccc(C(=O)N2CCN(c3ccc(C(=O)c4c(-c5ccc(O)cc5)sc5cc(O)ccc45)cc3)CC2)c1 |  | Ratio IC50 [1]: 46.2
COc1ccc2c(C(=O)c3ccc(OCCN4CCCCC4)cc3)c(-c3ccc(O)cc3)sc2c1 | 250 | 
O=C(c1ccc(OCCN2CCCCC2)cc1)c1c(-c2ccccc2)sc2ccccc12 | 300 | 
O=C(c1ccc(OCCN2CCCCC2)cc1)c1c(-c2ccccc2CCF)sc2cc(O)ccc12 |  | relative binding affinity (RBA) (Estrogen receptor beta [3]): 27
Cc1sc2cc(O)ccc2c1Cc1ccc(OCCN2CCCCC2)cc1 | 600 | 
CC(C)c1sc2cc(O)ccc2c1Cc1ccc(OCCN2CCCCC2)cc1 | 100 | 
O=C(c1ccc(OCCN2CCCCC2)cc1)c1c(-c2ccc(O)cc2CCCF)sc2cc(O)ccc12 |  | relative binding affinity (RBA) (Estrogen receptor beta [3]): 24
O=C(c1ccc(OCCN2CCCCC2)cc1)c1c(-c2ccc(O)c(F)c2)sc2cc(O)ccc12 | 0.3 | 
Oc1ccc2c(Cc3ccc(OCCN4CCCCC4)cc3)c(C3CCCCC3)sc2c1 | 10 | 
C[C@H]1CCN(CCOc2ccc(C(=O)c3c(-c4ccc(O)cc4)sc4cc(O)ccc34)cc2)C1 |  | IC50 (MCF7 [4]): 1 nM
CCc1sc2cc(O)ccc2c1Cc1ccc(OCCN2CCCCC2)cc1 | 400 | 
O=C(c1ccc(OCCN2CCCCC2)cc1)c1c2ccc(O)cc2sc1[C@H]1CC[C@H](O)CC1 | 0.5 | 
C[C@H](COc1ccc(C(=O)c2c(-c3ccc(O)cc3)sc3cc(O)ccc23)cc1)N1CCCC1 |  | IC50 (MCF7 [4]): 0.2 nM
O=C(c1ccc(OCCN2CCCCC2)cc1)c1c(-c2ccc(O)cc2)sc2ccccc12 | 35 | 
Cc1cc2c(C(=O)c3ccc(OCCN4CCCCC4)cc3)c(-c3ccc(O)cc3)sc2c(C)c1O | 500 | 
Oc1ccc2c(Cc3ccc(OCCN4CCCCC4)cc3)c([C@H]3CC[C@H](O)CC3)sc2c1 | 2 | 
O=C(c1ccc(OCCN2CCCCC2)cc1)c1c(-c2ccc(O)cc2)sc2cc(O)c(F)cc12 | 3 | 
O=C(c1ccc(OCCN2CCCCC2)cc1)c1c(-c2ccccc2CCCF)sc2cc(O)ccc12 |  | relative binding affinity (RBA) (Estrogen receptor beta [3]): 30
COc1ccc(-c2sc3cc(O)ccc3c2C(=O)c2ccc(OCCN3CCCCC3)cc2)cc1 | 1000 | 
Oc1ccc2c(Cc3ccc(OCCN4CCCCC4)cc3)c(C3CCCC3)sc2c1 | 10 | 
O=C(c1ccc(OCCN2CCCCC2)cc1)c1c(-c2ccc(O)c(Cl)c2)sc2cc(O)ccc12 | 2.3 | 
Cc1cc(-c2sc3cc(O)ccc3c2C(=O)c2ccc(OCCN3CCCCC3)cc2)ccc1O | 1 | 
O=C(c1ccc(N2CCN(C(=O)c3ccc(Cl)cc3)CC2)cc1)c1c(-c2ccc(O)cc2)sc2cc(O)ccc12 |  | IC50 (Estrogen receptor): 0.22 nM; IC50 (Estrogen receptor beta [5]): 9.07 nM; Ratio IC50 [1]: 41
O=C(c1ccc(OCCN2CCCCC2)cc1)c1c(-c2ccc(O)cc2)sc2cc(O)c(O)cc12 | 400 | 
CC(C)N1CCN(c2ccc(C(=O)c3c(-c4ccc(O)cc4)sc4cc(O)ccc34)cc2)CC1 |  | Ratio IC50 [1]: 121
Cc1cc(-c2sc3cc(O)ccc3c2C(=O)c2ccc(OCCN3CCCCC3)cc2)cc(C)c1O | 100 | 
COc1ccc(-c2sc3cc(OC)ccc3c2C(=O)c2ccc(OCCN3CCCCC3)cc2)cc1 | 300 | 
COc1ccc2c(C(=O)c3ccc(OCCN4CCCCC4)cc3)c([C@H]3CC[C@@H](O)CC3)sc2c1 | 100 | 
C[C@]12CC[C@@H]3c4ccc(O)cc4CC[C@H]3[C@@H]1CC[C@@H]2O [ESTRADIOL] |  | IC50 (MCF7 [2]; mcf7): Not Active; relative binding affinity (RBA) (Estrogen receptor beta [3]): 3.5
